Measured values: US12122778B2, “Activating pyruvate kinase R” (Novo Nordisk Health Care AG, priority 2018, dated 2024)

Columns and labels:
PKR(wt) = PKR(wt) (Homo sapiens, UniProt P30613); assay: Luminescence Biochemical Assay (Kinase Glo Plus), wild type PKR; conditions: without FBP; for activation at 1.54 µM: 1.54 μM compound, read-out: AC50 LUM KGP woFBP % Fold@1.54 μM mean; for AC50: read-out: AC50 LUM KGP woFBP AC50 μM gmean; for Emax: read-out: AC50 LUM KGP woFBP MAX % FOLD mean
PKR(G332S) = PKR(G332S) (Homo sapiens, UniProt P30613, G332S); assay: Luminescence Biochemical Assay (Kinase Glo Plus), PKR G332S mutant; conditions: with FBP; for activation at 1.54 µM: 1.54 μM compound, read-out: AC50 LUM KGP FBP % Fold@1.54 μM mean; for AC50: read-out: AC50 LUM KGP FBP AC50 μM gmean (column A); for Emax: read-out: AC50 LUM KGP FBP MAX % FOLD mean
PKR(R510Q) = PKR(R510Q) (Homo sapiens, UniProt P30613, R510Q); assay: Luminescence Biochemical Assay (Kinase Glo Plus), PKR R510Q mutant; conditions: without FBP; for activation at 1.54 µM: 1.54 μM compound, read-out: AC50 LUM KGP woFBP % Fold@1.54 μM mean; for AC50: read-out: AC50 LUM KGP woFBP AC50 μM gmean; for Emax: read-out: AC50 LUM KGP woFBP MAX % FOLD mean
PKR(R510Q), sequence (P30613 whole entry R510Q): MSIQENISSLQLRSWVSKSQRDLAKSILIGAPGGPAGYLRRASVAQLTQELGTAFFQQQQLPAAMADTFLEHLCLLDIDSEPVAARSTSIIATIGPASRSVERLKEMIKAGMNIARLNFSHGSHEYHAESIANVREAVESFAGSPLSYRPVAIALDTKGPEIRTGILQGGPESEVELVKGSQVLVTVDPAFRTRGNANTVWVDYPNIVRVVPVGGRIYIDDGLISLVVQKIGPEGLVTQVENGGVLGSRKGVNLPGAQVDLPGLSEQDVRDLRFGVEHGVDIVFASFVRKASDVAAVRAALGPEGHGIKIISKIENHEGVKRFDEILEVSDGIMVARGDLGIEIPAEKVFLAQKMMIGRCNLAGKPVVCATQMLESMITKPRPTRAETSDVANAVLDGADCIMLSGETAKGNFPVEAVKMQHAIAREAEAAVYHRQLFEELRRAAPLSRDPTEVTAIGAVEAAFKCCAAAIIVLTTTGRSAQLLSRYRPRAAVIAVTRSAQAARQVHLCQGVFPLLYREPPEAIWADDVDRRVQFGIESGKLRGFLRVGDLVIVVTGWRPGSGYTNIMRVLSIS

PKR(G332S), sequence (P30613 whole entry G332S): as the sequence (P30613 whole entry R510Q) above, with G332S, Q510R counted along it
PKR(wt), sequence (P30613 whole entry): as the sequence (P30613 whole entry R510Q) above, with Q510R counted along it

activation at 1.54 µM (PKR(wt)) [%]	AC50 (PKR(wt)) [µM]	Emax (PKR(wt)) [%]	activation at 1.54 µM (PKR(G332S)) [%]	AC50 (PKR(G332S)) [µM]	Emax (PKR(G332S)) [%]	activation at 1.54 µM (PKR(R510Q)) [%]	AC50 (PKR(R510Q)) [µM]	Emax (PKR(R510Q)) [%]	Compound
75 to 250	1 to 40	250 to 500	75 to 250	1 to 40	75 to 250	75 to 250	1 to 40	250 to 500	O=C(OCC1CC1)N1CC2=C(C1)CN(S(=O)(=O)c1ccc(OC(F)F)cc1)C2 [Example 22-2, Cyclopropylmethyl 5-[4-(difluoromethoxy)benzenesulfonyl]-1H,2H,3H,4H,5H,6H-pyrrolo[3,4-c]pyrrole-2-carboxylate]
75 to 250	1 to 40	75 to 250	75 to 250	1 to 40	75 to 250	75 to 250	1 to 40	75 to 250	O=C(OCC1CCOC1)N1CC2=C(C1)CN(S(=O)(=O)c1ccc(OC(F)F)cc1)C2 (stereo not drawn) [Example 22-3, Oxolan-3-ylmethyl 5-[4-(difluoromethoxy)benzenesulfonyl]-1H,2H,3H,4H,5H,6H-pyrrolo[3,4-c]pyrrole-2-carboxylate]
250 to 50000	0.1 to 1	250 to 500	75 to 250	0.1 to 1	75 to 250	250 to 50000	1 to 40	250 to 500	Cc1cc(COC(=O)N2CC3=C(C2)CN(S(=O)(=O)c2ccc(OC(F)F)cc2)C3)nn1C [Example 22-4, (1,5-Dimethyl-1H-pyrazol-3-yl)methyl 5-[4-(difluoromethoxy)benzenesulfonyl]-1H,2H,3H,4H,5H,6H-pyrrolo[3,4-c]pyrrole-2-carboxylate]
250 to 50000	0.1 to 1	250 to 500	75 to 250	0.1 to 1	75 to 250	250 to 50000	0.1 to 1	250 to 500	Cc1cc(COC(=O)N2CC3=C(C2)CN(S(=O)(=O)c2ccc(OC(F)F)cc2)C3)no1 [Example 22-5, (5-Methyl-1,2-oxazol-3-yl)methyl-5-[4-(difluoromethoxy)benzenesulfonyl]-1H,2H,3H,4H,5H,6H-pyrrolo[3,4-c]pyrrole-2-carboxylate]

Continued, compound first:

Compound	activation at 1.54 µM (PKR(wt)) [%]	AC50 (PKR(wt)) [µM]	Emax (PKR(wt)) [%]	activation at 1.54 µM (PKR(G332S)) [%]	AC50 (PKR(G332S)) [µM]	Emax (PKR(G332S)) [%]	activation at 1.54 µM (PKR(R510Q)) [%]	AC50 (PKR(R510Q)) [µM]	Emax (PKR(R510Q)) [%]
O=C(NCc1ccccc1F)N1CC2=C(C1)CN(S(=O)(=O)c1ccccn1)C2 [Example 21-42]	250 to 50000	0.1 to 1	250 to 500	75 to 250	0.1 to 1	75 to 250	250 to 50000	0.1 to 1	250 to 500
Cc1cc(CNC(=O)N2CC3=C(C2)CN(S(=O)(=O)c2ccccn2)C3)no1 [Example 21-43, N-[(5-methyl-1,2-oxazol-3-yl)methyl]-5-(pyridine-2-sulfonyl)-1H,2H,3H,4H,5H,6H-pyrrolo[3,4-c]pyrrole-2-carboxamide]	75 to 250	1 to 40	250 to 500	75 to 250	0.1 to 1	75 to 250	75 to 250	1 to 40	250 to 500
